The nature of data set [1]: Cytotoxicity against human Huh5-2 cells assessed as reduction in cell viability measured after 3 days by CellTiter 96 AQueous One Solution Cell Proliferation assay. The data set is classed as cell-based, Huh-5-2.
Data set [2] deals with RNA-directed RNA polymerase (Hepacivirus hominis) (UniProt O39930). Put plainly: Inhibition of NS5B RNA dependent RNA polymerase in HCV 1b Con1 infected in human Huh5-2 cells assessed as reduction in viral RNA replication measured after 3 days by luciferase reporter gene assay. The conditions noted are these: Hepatitis C virus subtype 1b. Type of data set: cell-based.

The CC50 is the concentration giving 50% cytotoxicity.

The structures appear in SMILES notation.

Sequence of RNA-directed RNA polymerase (Hepacivirus hominis) (O39930 1-591): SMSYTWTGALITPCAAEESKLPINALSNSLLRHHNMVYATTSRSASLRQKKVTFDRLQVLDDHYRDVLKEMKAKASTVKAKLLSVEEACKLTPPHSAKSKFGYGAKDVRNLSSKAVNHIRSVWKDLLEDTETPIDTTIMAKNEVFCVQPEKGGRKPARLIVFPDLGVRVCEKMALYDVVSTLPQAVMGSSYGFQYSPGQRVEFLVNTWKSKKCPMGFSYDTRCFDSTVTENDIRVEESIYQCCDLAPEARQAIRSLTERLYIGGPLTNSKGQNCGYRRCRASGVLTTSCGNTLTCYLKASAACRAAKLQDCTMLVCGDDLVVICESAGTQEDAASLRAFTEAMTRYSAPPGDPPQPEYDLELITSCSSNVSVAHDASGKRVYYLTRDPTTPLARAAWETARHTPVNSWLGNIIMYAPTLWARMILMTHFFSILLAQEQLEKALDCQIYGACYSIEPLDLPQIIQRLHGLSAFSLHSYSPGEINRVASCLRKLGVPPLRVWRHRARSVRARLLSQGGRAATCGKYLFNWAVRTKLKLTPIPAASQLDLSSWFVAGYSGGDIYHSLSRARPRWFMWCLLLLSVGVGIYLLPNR

Take `COC[C@H]1C[C@@](CC(C)C)(C(=O)O)N(C(=O)c2ccc(C(C)(C)C)c(OC)c2)[C@H]1CNC(C)=O`: the CC50 at 72 h in data set [1] was greater than 120 µM. Moreover, in data set [2], the inhibition result is “Dose-dependent effect”.

In the case of `COC[C@H]1C[C@@](CC(C)C)(C(=O)O)N(C(=O)c2ccc(C(C)(C)C)c(OC)c2)[C@H]1COC(C)=O`, the 50% cytotoxic concentration (CC50) at 72 h in data set [1] was greater than 120 µM. Moreover, the inhibition result in data set [2] is “Dose-dependent effect”.

On to `CC[C@H]1[C@@H](COC)C[C@@](CC(C)C)(C(=O)O)N1C(=O)c1ccc(C(C)(C)C)c(OC)c1`, for which the CC50 at 72 h in data set [1] amounted to 200 µM. In data set [2], the inhibition entry is “Dose-dependent effect”.

On to `COC[C@H]1C[C@@](CC(C)C)(C(=O)O)N(C(=O)c2ccc(C(C)(C)C)c(OC)c2)[C@H]1[C@H]1COC(C)(C)O1`, for which the CC50 at 72 h in data set [1] was greater than 120 µM. For the same compound, in data set [2], the inhibition entry is “Dose-dependent effect”.

With `COC[C@H]1C[C@@](CC(C)C)(C(=O)O)N(C(=O)c2ccc(C(C)(C)C)c(OC)c2)[C@H]1C(N)=O`, in data set [1], the CC50 at 72 h was greater than 120 µM. Also, the inhibition result in data set [2] was “Dose-dependent effect”.

Turning to `COC[C@H]1C[C@@](CC(C)C)(C(=O)O)N(C(=O)c2ccc(C(C)(C)C)c(OC)c2)[C@@H]1c1nccs1`, the CC50 at 72 h in data set [1] is 200 µM. The inhibition entry in data set [2] is “Dose-dependent effect”.

Consider `COC[C@H]1C[C@@](CC(C)C)(C(=O)O)N(C(=O)c2ccc(C(C)(C)C)c(OC)c2)[C@H]1c1nccs1`, for which the CC50 at 72 h in data set [1] was greater than 120 µM. In addition, the inhibition entry in data set [2] is “Dose-dependent effect”.

For the compound `COC[C@H]1C[C@@](CC(C)C)(C(=O)O)N(C(=O)c2ccc(C(C)(C)C)c(OC)c2)[C@H]1CN=[N+]=[N-]`, the half-maximal cytotoxic concentration (CC50) at 72 h in data set [1] was greater than 120 µM. For the same compound, the inhibition result in data set [2] was “Dose-dependent effect”.

As to `COC[C@H]1C[C@@](CC(C)C)(C(=O)O)N(C(=O)c2ccc(C(C)(C)C)c(OC)c2)[C@H]1[C@H]1COC(=O)O1`, the CC50 at 72 h in data set [1] is greater than 120 µM. In data set [2], the inhibition result is “Dose-dependent effect”.

With `C=CCOC[C@H]1[C@@H](COC)C[C@@](CC(C)C)(C(=O)O)N1C(=O)c1ccc(C(C)(C)C)c(OC)c1`, the cytotoxic concentration (CC50) at 72 h in data set [1] is greater than 120 µM. The inhibition entry in data set [2] was “Dose-dependent effect”.

With `COC[C@H]1C[C@@](CC(C)C)(C(=O)O)N(C(=O)c2ccc(C(C)(C)C)c(OC)c2)[C@H]1CF`, the 50% cytotoxic concentration (CC50) at 72 h in data set [1] is greater than 120 µM. For the same compound, the inhibition result in data set [2] is “Dose-dependent effect”.

On to `COC[C@H]1C[C@@](CC(C)C)(C(=O)O)N(C(=O)c2ccc(C(C)(C)C)c(OC)c2)[C@H]1C(=O)OC`, for which the 50% cytotoxic concentration (CC50) at 72 h in data set [1] is greater than 120 µM. Besides, the inhibition result in data set [2] is “Dose-dependent effect”.

As to `CCOC(=O)c1csc([C@H]2[C@@H](COC)C[C@@](CC(C)C)(C(=O)O)N2C(=O)c2ccc(C(C)(C)C)c(OC)c2)n1`, in data set [1], the CC50 at 72 h was determined as 200 µM. Moreover, the inhibition result in data set [2] was “Dose-dependent effect”.

Take `COC[C@H]1C[C@@](CC(C)C)(C(=O)O)N(C(=O)c2ccc(C(C)(C)C)c(OC)c2)[C@H]1COC(=O)OC`: the CC50 at 72 h in data set [1] was greater than 120 µM. Besides, the inhibition entry in data set [2] was “Dose-dependent effect”.

For the compound `COC[C@H]1C[C@@](CC(C)C)(C(=O)O)N(C(=O)c2ccc(C(C)(C)C)c(OC)c2)[C@H]1COC`, the half-maximal cytotoxic concentration (CC50) at 72 h in data set [1] was greater than 120 µM. For the same compound, the inhibition entry in data set [2] was “Dose-dependent effect”.

The values are drawn from ChEMBL document CHEMBL4385602, “Stereoselective synthesis and biological evaluation as inhibitors of hepatitis C virus RNA polymerase of GSK3082 analogues with structural diversity at the 5-position” (Eur J Med Chem, 2019).
